Where two headings read alike, the source gives them in different places.
Assays:
[1] = system: MDA-MB-231 cells; assay: MTT-based cell viability assay; set-up: species or system human; details: for MTT-based relative viability: relative to cn = 1.00, peptide concentration not given, treated two days, OD 562 nm
Method: (§1) Using 96-well plates with approximately 2000 cells per well, an MTT-based metabolic activity assay was performed. The cells were treated with agents and incubated for two days. On the fourth day, they were stained with 0.5 mg/mL thiazolyl blue tetrazolium bromide (M5655, Sigma). The optical density, used to assess metabolic activity, was measured at 562 nm. For the EdU-based proliferation activity assay, the cells were seeded in 96-well plates at about 1000 cells per well. A fluorescence-based cell proliferation kit (Click-iT™, EdU Alexa Fluor™ 488 Imaging Kit; Thermo Fisher, Waltham, MA, USA) was used according to the manufacturer’s instructions.

[2] = system: MDA-MB-436 cells; assay: MTT-based cell viability assay; set-up: species or system human; details: for MTT-based relative viability: relative to cn = 1.00, peptide concentration not given, treated two days, OD 562 nm
Method: as §1

[3] = system: human triple-negative breast cancer tissue; assay: Ex vivo cancer tissue assay; assay type: cell-based; details: 5 µM Cisplatin or Taxol with 25 µg/mL of P18; 48 and 96 h; n = 6
Method: The usage of human triple-negative breast cancer tissue was approved by the Indiana University Institutional Review Board (1911155674), and the tissues were received from the Indiana University Simon Comprehensive Cancer Center Tissue Procurement Core. Freshly isolated breast cancer tissue (~10 mg) was manually fragmented with a scalpel into small pieces (0.5~0.8 mm in length), which were grown in DMEM with 10% FBS and antibiotics for a day. […] The culture medium, consisting of these agents, was applied for 4 days, and a change in the fragment size was determined.

[4] = system: MCF7 cells; assay: MTT-based cell viability assay; set-up: species or system human
Method: as §1

[5] = system: PANC1 PDAC cells; assay: MTT-based cell viability assay
Method: as §1

[6] = system: TT2 osteosarcoma cell line; assay: MTT-based cell viability assay; details: TT2 OS cells
Method: as §1

[7] = system: PANC198 PDAC cells; assay: MTT-based cell viability assay; details: PANC198 (PAN198)
Method: as §1

[8] = system: 4T1.2 mammary tumor cells; assay: MTT-based cell viability assay; set-up: species or system mouse
Method: as §1

“NDLAVVDVR [P13, ACP candidate … from Ncl]” showed an MTT-based relative viability [1] of 0.98 and an MTT-based relative viability [2] of 0.95.

`N.N.[Cl][Pt][Cl]` [Cisplatin, reference compound] was tested, and the IC50 ([1]; drug alone, read-out: IC50, MTT-based viability) was 1200 nM, the IC50 ([1]; drug in combination with P18, read-out: IC50, MTT-based viability, with application of P18) was 500 nM and the “size of cancer tissues, drug with concurrent P18 versus drug alone” value [3] was “more pronounced reduction in the size”.

Work on “QITLNDLPVGR [P20, ACP candidate … from Prdx4]” yielded an MTT-based relative viability [1] of 0.87 and an MTT-based relative viability [2] of 0.86.

In the case of “EEAESTLQSFR [P14, ACP candidate … from Vim]”, the MTT-based relative viability [1] is reported as 0.88 and the MTT-based relative viability [2] is reported as 0.84.

Molecule “IEVIEIMTDR [P22, ACP candidate … from Hnrnpa1]” has an MTT-based relative viability [1] of 0.86 and an MTT-based relative viability [2] of 0.88.

With “FEDENFILK [P11, ACP candidate … from Ppia]” the MTT-based relative viability [1] was 0.96 and the MTT-based relative viability [2] was 0.95.

With “YEWDVAEAR [P16, ACP candidate … from Eef2]” the MTT-based relative viability [1] was 0.93 and the MTT-based relative viability [2] was 0.96.

With “IDTIEIITDR [P15, ACP candidate … from Hnrn]” the MTT-based relative viability [1] was 0.93 and the MTT-based relative viability [2] was 0.95.

For `CC(=O)O[C@H]1C(=O)[C@@]2(C)[C@H]([C@H](OC(=O)c3ccccc3)[C@]3(O)C[C@H](OC(=O)[C@H](O)[C@@H](NC(=O)c4ccccc4)c4ccccc4)C(C)=C1C3(C)C)[C@]1(OC(C)=O)CO[C@@H]1C[C@@H]2O` [Taxol, reference compound], the IC50 ([1]; Homo sapiens, drug alone, read-out: IC50, MTT-based viability) was 700 nM, the IC50 ([1]; Homo sapiens, drug in combination with P18, read-out: IC50, MTT-based viability, with application of P18) was 300 nM and the “size of cancer tissues, drug with concurrent P18 versus drug alone” value [3] was “more pronounced reduction in the size”.

With “TDYMVGSYGPR-NH2 [P18-NH2, C-terminal-amidated P18, …-NH2]” the “tumor-suppressor effect compared with the original P18 (MTT)” value [1] was “did not improve the tumor-suppressor effect”, the “tumor-suppressor effect compared with the original P18 (MTT)” value [2] was “did not improve the tumor-suppressor effect” and the “tumor-suppressor effect compared with the original P18 (MTT)” value [4] was “did not improve the tumor-suppressor effect”. The “tumor-suppressor effect compared with the original P18 (MTT)” value [5] was “did not improve the tumor-suppressor effect”, the “tumor-suppressor effect compared with the original P18 (MTT)” value [6] was “did not improve the tumor-suppressor effect” and the “tumor-suppressor effect compared with the original P18 (MTT)” value [7] was “did not improve the tumor-suppressor effect”. The “tumor-suppressor effect compared with the original P18 (MTT)” value [8] was “did not improve the tumor-suppressor effect”.

Molecule “VNFTVDQIR [P12, ACP candidate … from Eef2]” has an MTT-based relative viability [1] of 0.94 and an MTT-based relative viability [2] of 0.92.

With “FEELNADLFR [P21, ACP candidate … from Hspa8]” the MTT-based relative viability [1] was 0.89 and the MTT-based relative viability [2] was 0.92.

Work on “DQVANSAFVER [P19, ACP candidate … from Hsp90aa1]” yielded an MTT-based relative viability [1] of 1.09 and an MTT-based relative viability [2] of 0.96.

“LGDLYEEEMR [P17, ACP candidate … from Vim]” gave an MTT-based relative viability [1] of 1.10 and an MTT-based relative viability [2] of 0.99.

B1: Arhgdia: Rho GDP dissociation inhibitor alpha; human recombinant ARHGDIA protein (MyBioSource) (protein, UniProt P52565 2-204, looked up)
Rho GDP-dissociation …: AEQEPTAEQLAQIAAENEEDEHSVNYKPPAQKSIQEIQELDKDDESLRKYKEALLGRVAVSADPNVPNVVVTGLTLVCSSAPGPLELDLTGDLESFKKQSFVLKEGVEYRIKISFRVNREIVSGMKYIQHTYRKGVKIDKTDYMVGSYGPRAEEYEFLTPVEEAPKGMLARGSYSIKSRFTDDDKTDHLSWEWNLTIKKDWKD
In the case of B1, the MTT-based cell viability ([1]; 5 μg/mL of recombinant ARHGDIA protein) is reported as “significant reduction”.
